From ChEMBL document CHEMBL4229568, “Discovery of natural flavonoids as activators of Nrf2-mediated defense system: Structure-activity relationship and inhibition of intracellular oxidative insults” (Bioorg Med Chem, 2018)
Active and inactive are the calls of the source. No cut-off for these calls is given here.

Experiments:
[1] = target: T1, Nuclear factor erythroid 2-related factor 2 (Mus musculus) (UniProt Q60795); test: Activation of Nrf2 in mouse Heap1c1c7 cells assessed as induction of NAD(P)H:quinone reductase activity at 25 uM relative to control; format: cell-based
T1 sequence (whole entry): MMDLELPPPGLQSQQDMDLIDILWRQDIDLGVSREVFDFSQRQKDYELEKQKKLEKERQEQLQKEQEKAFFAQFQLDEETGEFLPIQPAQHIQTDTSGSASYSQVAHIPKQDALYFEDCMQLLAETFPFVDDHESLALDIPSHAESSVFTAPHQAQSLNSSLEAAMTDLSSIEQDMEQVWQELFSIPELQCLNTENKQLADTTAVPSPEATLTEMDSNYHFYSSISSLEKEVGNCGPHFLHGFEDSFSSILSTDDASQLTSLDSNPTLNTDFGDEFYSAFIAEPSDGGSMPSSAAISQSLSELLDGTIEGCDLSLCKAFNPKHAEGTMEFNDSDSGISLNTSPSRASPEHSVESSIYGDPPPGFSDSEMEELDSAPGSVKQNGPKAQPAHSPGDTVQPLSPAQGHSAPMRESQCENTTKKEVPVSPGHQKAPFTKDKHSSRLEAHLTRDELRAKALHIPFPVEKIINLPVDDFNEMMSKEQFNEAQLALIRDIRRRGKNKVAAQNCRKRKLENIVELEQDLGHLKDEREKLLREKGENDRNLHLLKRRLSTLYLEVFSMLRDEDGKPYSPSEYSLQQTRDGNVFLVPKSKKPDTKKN

[2] = target: T2, Nuclear factor erythroid 2-related factor 2 (Homo sapiens) (UniProt Q16236); test: Activation of Nrf2 in human BEAS2B cells assessed as upregulation of NQO1 protein expression at 0.31 to 20 uM after 18 hrs by immunoblot analysis; format: cell-based
T2 sequence (whole entry): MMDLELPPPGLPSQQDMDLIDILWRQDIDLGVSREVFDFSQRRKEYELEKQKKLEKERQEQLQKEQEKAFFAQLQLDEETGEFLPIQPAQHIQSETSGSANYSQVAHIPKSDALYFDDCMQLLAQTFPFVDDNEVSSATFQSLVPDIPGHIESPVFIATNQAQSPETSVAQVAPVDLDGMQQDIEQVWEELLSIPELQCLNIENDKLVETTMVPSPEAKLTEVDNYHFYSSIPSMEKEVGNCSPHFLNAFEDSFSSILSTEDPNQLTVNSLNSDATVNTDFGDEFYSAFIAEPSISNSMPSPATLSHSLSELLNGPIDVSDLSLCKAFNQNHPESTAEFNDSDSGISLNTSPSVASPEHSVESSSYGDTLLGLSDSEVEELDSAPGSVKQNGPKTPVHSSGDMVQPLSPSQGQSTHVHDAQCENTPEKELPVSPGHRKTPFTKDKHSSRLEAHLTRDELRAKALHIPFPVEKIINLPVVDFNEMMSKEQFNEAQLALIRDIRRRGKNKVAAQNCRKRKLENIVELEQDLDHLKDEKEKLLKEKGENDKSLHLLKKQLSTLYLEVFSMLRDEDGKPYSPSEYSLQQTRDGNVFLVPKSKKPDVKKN

[3] = target: T2, Nuclear factor erythroid 2-related factor 2 (Homo sapiens); test: Activation of Nrf2 in human BEAS2B cells assessed as upregulation of Nrf2 protein expression at 0.31 to 20 uM after 18 hrs by immunoblot analysis; format: cell-based
[4] = target: T2, Nuclear factor erythroid 2-related factor 2 (Homo sapiens); test: Activation of Nrf2 in human BEAS2B cells assessed as upregulation of NQO1 protein expression at 3.12 to 25 uM after 12 hrs by immunoblot analysis; format: cell-based
[5] = target: T2, Nuclear factor erythroid 2-related factor 2 (Homo sapiens); test: Activation of Nrf2 in human BEAS2B cells assessed as upregulation of NQO1 protein expression at 6.25 uM pretreated for 1 hr followed by co-treatment with MEK1/2 inhibitor PD98059 for 18 hrs by immunoblot analysis; format: cell-based
[6] = target: T2, Nuclear factor erythroid 2-related factor 2 (Homo sapiens); test: Activation of Nrf2 in human BEAS2B cells assessed as upregulation of GSH levels at 5 uM measured over 1 to 24 hrs; format: cell-based
[7] = target: T1, Nuclear factor erythroid 2-related factor 2 (Mus musculus); test: Activation of Nrf2 in mouse Heap1c1c7 cells assessed as induction of NAD(P)H:quinone reductase activity at 6.25 uM pretreated for 1 hr followed by co-treatment with MEK1/2 inhibitor Uo126 for 24 hrs; format: cell-based
[8] = target: T1, Nuclear factor erythroid 2-related factor 2 (Mus musculus); test: Activation of Nrf2 in mouse Heap1c1c7 cells assessed as induction of NAD(P)H:quinone reductase activity at 6.25 uM pretreated for 1 hr followed by co-treatment with MEK1/2 inhibitor PD98059 for 24 hrs; format: cell-based
[9] = test system: BEAS-2B; test: Effect on Keap1 protein levels in human BEAS2B cells at <= 20 uM after 18 hrs by immunoblot analysis; format: functional, cell-based
[10] = target: T2, Nuclear factor erythroid 2-related factor 2 (Homo sapiens); test: Activation of Nrf2 in human BEAS2B cells assessed as upregulation of Nrf2 protein expression at 6.25 uM pretreated for 1 hr followed by co-treatment with MEK1/2 inhibitor PD98059 for 18 hrs by immunoblot analysis; format: cell-based
[11] = target: T2, Nuclear factor erythroid 2-related factor 2 (Homo sapiens); test: Activation of Nrf2 in human BEAS2B cells assessed as upregulation of gamma-GCS protein expression at 3.12 to 25 uM after 12 hrs by immunoblot analysis; format: cell-based
[12] = target: T2, Nuclear factor erythroid 2-related factor 2 (Homo sapiens); test: Activation of Nrf2 in human BEAS2B cells assessed as upregulation of NQO1 protein expression at 6.25 uM pretreated for 1 hr followed by co-treatment with PI3K inhibitor LY294002 for 18 hrs by immunoblot analysis; format: cell-based
[13] = test system: BEAS-2B; test: Cytoprotective activity in human BEAS2B cells assessed as decrease in As(+3)-induced cell death at 3.12 to 25 uM preincubated for 8 hrs followed by As(+3) challenge and measured after 24 hrs by MTT assay; format: functional, cell-based
[14] = target: T2, Nuclear factor erythroid 2-related factor 2 (Homo sapiens); test: Activation of Nrf2 in human BEAS2B cells assessed as upregulation of NQO1 protein expression at 6.25 uM after 8 to 24 hrs by immunoblot analysis; format: cell-based
[15] = target: T2, Nuclear factor erythroid 2-related factor 2 (Homo sapiens); test: Activation of Nrf2 in human BEAS2B cells assessed as upregulation of NQO1 protein expression at 50 to 100 uM after 18 hrs by immunoblot analysis; format: cell-based
[16] = target: T1, Nuclear factor erythroid 2-related factor 2 (Mus musculus); test: Activation of Nrf2 in mouse Heap1c1c7 cells assessed as induction of NAD(P)H:quinone reductase activity at 6.25 uM pretreated for 1 hr followed by co-treatment with PERK inhibitor GSK2606414 for 24 hrs; format: cell-based
[17] = target: T2, Nuclear factor erythroid 2-related factor 2 (Homo sapiens); test: Activation of Nrf2 in human BEAS2B cells assessed as upregulation of Nrf2 protein expression at 6.25 uM pretreated for 1 hr followed by co-treatment with PERK inhibitor GSK2606414 for 18 hrs by immunoblot analysis; format: cell-based
[18] = target: T2, Nuclear factor erythroid 2-related factor 2 (Homo sapiens); test: Activation of Nrf2 in human BEAS2B cells assessed as upregulation of NQO1 protein expression at 6.25 uM pretreated for 1 hr followed by co-treatment with PERK inhibitor GSK2606414 for 18 hrs by immunoblot analysis; format: cell-based
[19] = test system: BEAS-2B; test: Effect on reactive oxygen species production in human BEAS2B cells at 6.25 uM treated for 8 hrs; format: ADME, cell-based
[20] = test system: BEAS-2B; test: Cytoprotective activity in human BEAS2B cells assessed as decrease in 5 to 20 uM As(+3)-induced cell death at 6.25 uM preincubated for 8 hrs followed by As(+3) challenge and measured after 24 hrs by MTT assay; format: functional, cell-based

For `COc1ccc(-c2coc3cc(OC)cc(O)c3c2=O)cc1` [4',7-DIMETHOXY-5-HYDROXYGENISTEIN], which fold change (FC) [1] is on record?
Its fold change (FC) is 2.08.

And the Activity [2]?
The Activity was “Dose-dependent effect”.

What about the Activity [3] of the same molecule?
The Activity was “Dose-dependent effect”.

And the Activity [4]?
Its Activity is “Active”.

What about the Activity [5] of the same molecule?
The Activity was “inactive”.

And the Activity [6]?
Its Activity is “Active”.

And the Activity [7]?
Its Activity is “Active”.

What about the Activity [8] of the same molecule?
Its Activity is “inactive”.

What about the Activity [9] of the same molecule?
Its Activity is “inactive”.

What about the Activity [10] of the same molecule?
The Activity was “inactive”.

What about the Activity [11] of the same molecule?
The Activity was “Active”.

What about the Activity [12] of the same molecule?
The Activity was “inactive”.

What about the Activity [13] of the same molecule?
The Activity was “Active”.

And the Activity [14]?
The Activity was “Active”.

And the Activity [15]?
Its Activity is “inactive”.

And the Activity [16]?
Its Activity is “inactive”.

And the Activity [17]?
The Activity was “inactive”.

What about the Activity [18] of the same molecule?
The Activity was “inactive”.

What about the Activity [19] of the same molecule?
The Activity was “Non-Toxic”.

And the Activity [20]?
The Activity was “Active”.
